Tests used:
Assay type in all cases: in vivo
Lolium perenne (LOLPE) [1] = assay: Pre-emergence herbicidal activity, glasshouse pot test; conditions: pre-emergence, rate 250 g/ha, evaluated after 13 days
Method in brief: (§1)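 Plants in standard-soil pots, glasshouse at 24/16° C, 14 h photoperiod, 65% humidity. Aqueous spray (acetone/water 50:50 formulation, 0.5% Tween 20) applied pre-emergence at day 1 or post-emergence at day 8. Percent damage recorded after 13 days.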

[2] = system: Alopecurus myosuroides (ALOMY); assay: as above; conditions: pre-emergence, rate 250 g/ha, evaluated after 13 days
Method in brief: as §1

Avena fatua (AVEFA) [3] = assay: as above; conditions: pre-emergence, rate 250 g/ha, evaluated after 13 days
Method in brief: as §1

[4] = system: Echinochloa crus-galli (ECHCG); assay: as above; conditions: pre-emergence, rate 250 g/ha, evaluated after 13 days
Method in brief: as §1

Lolium perenne (LOLPE) [5] = assay: Post-emergence herbicidal activity, glasshouse pot test; conditions: rate 250 g/ha, evaluated after 13 days
Method in brief: as §1

[6] = system: Alopecurus myosuroides (ALOMY); assay: as above; conditions: rate 250 g/ha, evaluated after 13 days
Method in brief: as §1

Avena fatua (AVEFA) [7] = assay: as above; conditions: rate 250 g/ha, evaluated after 13 days
Method in brief: as §1

[8] = system: Echinochloa crus-galli (ECHCG); assay: as above; conditions: rate 250 g/ha, evaluated after 13 days
Method in brief: as §1

Row | Compound | LOLPE damage to plant (100=total damage to plant; 0=no damage to plant) (Lolium perenne (LOLPE) [1]) | ALOMY damage to plant (100=total damage to plant; 0=no damage to plant) [2] | AVEFA damage to plant (100=total damage to plant; 0=no damage to plant) (Avena fatua (AVEFA) [3]) | ECHCG damage to plant (100=total damage to plant; 0=no damage to plant) [4] | LOLPE damage to plant (100=total damage to plant; 0=no damage to plant) (Lolium perenne (LOLPE) [5]) | ALOMY damage to plant (100=total damage to plant; 0=no damage to plant) [6] | AVEFA damage to plant (100=total damage to plant; 0=no damage to plant) (Avena fatua (AVEFA) [7]) | ECHCG damage to plant (100=total damage to plant; 0=no damage to plant) [8]
1 | CCC(=O)OC1=C(c2cc(Oc3ccc(C#N)cc3F)ccc2CC)C(=O)C(C)(C)OC1(C)C [Example P-2] | 100 | 80 | 70 | 100 | 90 | 90 | 70 | 100
2 | CCCC(=O)OC1=C(c2cc(Oc3ccc(C#N)cc3F)ccc2CC)C(=O)C(C)(C)OC1(C)C [Example P-3] | 100 | 70 | 70 | 100 | 90 | 90 | 60 | 100
3 | CCc1ccc(Oc2ccc(C#N)cc2F)cc1C1=C(OC(=O)OC)C(C)(C)OC(C)(C)C1=O [Example P-4] | 100 | 80 | 60 | 100 | 90 | 90 | 60 | 100
4 | CCOC(=O)OC1=C(c2cc(Oc3ccc(C#N)cc3F)ccc2CC)C(=O)C(C)(C)OC1(C)C [Example P-5] | 100 | 100 | 70 | 100 | 80 | 80 | 70 | 100
5 | CCCOC(=O)OC1=C(c2cc(Oc3ccc(C#N)cc3F)ccc2CC)C(=O)C(C)(C)OC1(C)C [Example P-6] | 90 | 80 | 20 | 100 | 70 | 90 | 50 | 90

From US8865623B2, “Herbicidally active cyclic diones and derivatives thereof, processes for their preparation, compositions, and method of controlling weeds” (Syngenta Limited, priority 2009, dated 2014)
